Measurements: patent publication US20240360091A1, “GLUN2B-SUBUNIT SELECTIVE ANTAGONISTS OF THE N-METHYL-D-ASPARTATE RECEPTORS WITH ENHANCED POTENCY AT ACIDIC PH” (Emory University, priority 2021, published 2024)
Where two headings read alike, the source gives them in different places.

Assays:
human GluN1/GluN2B = human GluN1/GluN2B (Homo sapiens (Human), UniProt Q05586+Q13224); test: Two electrode voltage-clamp recordings from Xenopus laevis oocytes, GluN2B potency and pH dependence; type: cell-based
Sequence of human GluN1/GluN2B (Q13224 27-1484, other chains not shown): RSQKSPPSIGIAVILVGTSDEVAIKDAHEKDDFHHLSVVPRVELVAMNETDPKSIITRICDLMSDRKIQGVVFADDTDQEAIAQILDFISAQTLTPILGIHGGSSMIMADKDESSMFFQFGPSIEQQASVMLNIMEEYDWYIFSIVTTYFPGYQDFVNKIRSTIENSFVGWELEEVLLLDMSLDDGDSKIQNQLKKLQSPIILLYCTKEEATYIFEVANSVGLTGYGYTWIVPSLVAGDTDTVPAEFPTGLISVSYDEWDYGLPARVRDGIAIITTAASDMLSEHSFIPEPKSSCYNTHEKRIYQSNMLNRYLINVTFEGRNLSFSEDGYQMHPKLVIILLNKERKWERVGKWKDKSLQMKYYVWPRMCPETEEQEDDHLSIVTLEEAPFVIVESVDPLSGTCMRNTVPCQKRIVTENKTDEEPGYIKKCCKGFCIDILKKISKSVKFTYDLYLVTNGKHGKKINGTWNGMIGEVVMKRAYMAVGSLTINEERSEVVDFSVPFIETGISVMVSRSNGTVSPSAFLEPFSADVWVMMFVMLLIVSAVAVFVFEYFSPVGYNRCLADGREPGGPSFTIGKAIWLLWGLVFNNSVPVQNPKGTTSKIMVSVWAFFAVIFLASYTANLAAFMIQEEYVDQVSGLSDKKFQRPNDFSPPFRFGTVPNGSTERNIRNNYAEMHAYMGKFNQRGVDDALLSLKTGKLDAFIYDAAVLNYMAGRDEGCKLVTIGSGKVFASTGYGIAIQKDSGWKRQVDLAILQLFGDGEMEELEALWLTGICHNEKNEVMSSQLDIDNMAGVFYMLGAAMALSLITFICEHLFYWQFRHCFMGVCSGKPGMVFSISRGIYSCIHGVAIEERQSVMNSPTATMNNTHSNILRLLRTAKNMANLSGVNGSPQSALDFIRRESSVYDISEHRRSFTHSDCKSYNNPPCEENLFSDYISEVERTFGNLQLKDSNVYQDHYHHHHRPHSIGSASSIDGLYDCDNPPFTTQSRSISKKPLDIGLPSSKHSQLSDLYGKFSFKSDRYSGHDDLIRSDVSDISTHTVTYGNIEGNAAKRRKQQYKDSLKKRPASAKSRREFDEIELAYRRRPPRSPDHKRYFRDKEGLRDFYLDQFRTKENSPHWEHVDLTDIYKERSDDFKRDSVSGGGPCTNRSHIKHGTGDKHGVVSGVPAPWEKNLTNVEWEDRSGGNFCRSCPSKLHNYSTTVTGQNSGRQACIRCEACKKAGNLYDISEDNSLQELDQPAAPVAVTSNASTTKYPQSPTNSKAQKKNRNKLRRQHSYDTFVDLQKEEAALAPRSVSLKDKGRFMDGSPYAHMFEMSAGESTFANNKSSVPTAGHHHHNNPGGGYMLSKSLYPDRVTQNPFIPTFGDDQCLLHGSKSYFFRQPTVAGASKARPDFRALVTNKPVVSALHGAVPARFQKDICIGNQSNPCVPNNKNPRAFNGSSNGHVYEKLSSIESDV
Experimental: Two Electrode Voltage-Clamp Recordings from Xenopus laevis Oocytes
Stage V-VI Xenopus laevis unfertilized oocytes were purchased from Ecocyte (Austin, Texas) and injected with 5 ng of GluN1 and 10 ng of GluN2B cRNAs. The cDNAs for human GluN1 and GluN2B, encoding NCBI reference sequences NM_007327.3 and NM_000834.3, respectively, were linearized and cRNAs made as previously described (Traynelis et al., J Neurosci, 1998, 18(16):6163-75). After injection, the oocytes were incubated in Barth's culture solution (88 mM NaCl, 1 mM KCl, 2.4 mM NaHCO3, 10 mM HEPES, 0.82 mM MgSO4, 0.33 mM Ca(NO3)2, 0.41 mM CaCl2), 10 U/mL PenStrep, and 0.1 mg/mL gentamycin, pH 7.4) at 18° C. Two electrode voltage-clamp (TEVC) recordings were made at 22-23° C., 2-7 days after the injection, using Warner OC725C amplifiers (VHOLD=−40 mV). Briefly, the oocytes were perfused in a recording solution (90 mM NaCl, 1 mM KCl, 10 mM HEPES, 0.01 mM EDTA, and 0.5 mM BaCl2) adjusted to either pH 7.6 or 6.9 by addition of NaOH or HCl, respectively (pH 6.9 solutions were prepared by addition of HCl to pH 7.6 solutions to maintain an equal concentration of Na^+ ions in both solutions). Concentration-response curves of the compounds were obtained by application of increasing concentrations of each individual compound until steady state conditions were obtained, in the presence of saturating agonist concentrations (i.e., 100 μM glutamate and 30 μM glycine). In general, oocyte recordings were made from 4-10 oocytes per experiment (i.e., oocyte injection cycle) from ≥two experiments. The concentration-response relationship for each oocyte was fit by equation (1),
Percent Response=(100−minimum)/(1+([concentration]/IC50)^nH)+minimum (1)
where minimum is the residual response in saturating concentration of each individual compound (constrained to be ≥0), and IC50 is the concentration of compound that causes half-maximal inhibition, and nH is the Hill slope.

GluN2A = GluN2A (Homo sapiens (Human), UniProt Q12879); test: Two electrode voltage-clamp recordings, single concentration, GluN2A; type: cell-based; conditions: pH 6.9
Sequence of GluN2A (Q12879 23-1464, other chains not shown): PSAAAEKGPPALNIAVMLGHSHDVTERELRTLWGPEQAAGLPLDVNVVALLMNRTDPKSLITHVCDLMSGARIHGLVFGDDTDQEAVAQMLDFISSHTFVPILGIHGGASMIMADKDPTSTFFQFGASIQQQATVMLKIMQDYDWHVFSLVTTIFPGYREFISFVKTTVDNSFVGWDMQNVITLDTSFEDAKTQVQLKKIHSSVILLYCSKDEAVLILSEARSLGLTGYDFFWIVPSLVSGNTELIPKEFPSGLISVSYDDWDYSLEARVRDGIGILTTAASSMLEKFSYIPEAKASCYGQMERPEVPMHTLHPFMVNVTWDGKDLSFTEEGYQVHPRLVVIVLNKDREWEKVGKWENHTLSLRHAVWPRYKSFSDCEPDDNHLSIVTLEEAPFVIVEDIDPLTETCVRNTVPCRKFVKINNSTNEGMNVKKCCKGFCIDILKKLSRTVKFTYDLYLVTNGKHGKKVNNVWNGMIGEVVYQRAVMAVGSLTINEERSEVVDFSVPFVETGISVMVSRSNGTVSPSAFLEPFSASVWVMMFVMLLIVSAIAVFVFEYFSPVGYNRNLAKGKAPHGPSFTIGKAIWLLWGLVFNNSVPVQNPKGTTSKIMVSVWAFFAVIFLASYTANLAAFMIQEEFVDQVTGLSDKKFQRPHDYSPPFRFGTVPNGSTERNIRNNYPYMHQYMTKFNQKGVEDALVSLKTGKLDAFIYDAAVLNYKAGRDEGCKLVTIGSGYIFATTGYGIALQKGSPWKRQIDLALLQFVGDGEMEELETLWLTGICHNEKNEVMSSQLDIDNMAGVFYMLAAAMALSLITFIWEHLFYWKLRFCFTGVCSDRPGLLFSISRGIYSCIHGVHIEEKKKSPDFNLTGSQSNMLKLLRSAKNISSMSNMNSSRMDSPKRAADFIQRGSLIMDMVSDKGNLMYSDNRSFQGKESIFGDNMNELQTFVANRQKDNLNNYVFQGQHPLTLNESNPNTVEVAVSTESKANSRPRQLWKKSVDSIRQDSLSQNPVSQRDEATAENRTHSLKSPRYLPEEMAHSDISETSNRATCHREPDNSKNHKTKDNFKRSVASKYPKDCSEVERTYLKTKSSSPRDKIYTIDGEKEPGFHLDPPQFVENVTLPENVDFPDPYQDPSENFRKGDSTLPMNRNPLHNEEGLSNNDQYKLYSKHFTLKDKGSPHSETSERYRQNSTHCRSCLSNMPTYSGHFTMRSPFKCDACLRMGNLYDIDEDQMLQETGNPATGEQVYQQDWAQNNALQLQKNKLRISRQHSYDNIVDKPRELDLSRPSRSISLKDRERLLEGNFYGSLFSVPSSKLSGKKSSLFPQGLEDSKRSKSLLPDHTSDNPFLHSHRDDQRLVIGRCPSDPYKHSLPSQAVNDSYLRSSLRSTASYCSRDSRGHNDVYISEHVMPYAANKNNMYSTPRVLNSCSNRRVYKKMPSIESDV

GluN2D = GluN2D (Homo sapiens (Human), UniProt O15399); test: Two electrode voltage-clamp recordings, single concentration, GluN2D; type: cell-based; conditions: pH 6.9
Sequence of GluN2D (O15399 28-1336, other chains not shown): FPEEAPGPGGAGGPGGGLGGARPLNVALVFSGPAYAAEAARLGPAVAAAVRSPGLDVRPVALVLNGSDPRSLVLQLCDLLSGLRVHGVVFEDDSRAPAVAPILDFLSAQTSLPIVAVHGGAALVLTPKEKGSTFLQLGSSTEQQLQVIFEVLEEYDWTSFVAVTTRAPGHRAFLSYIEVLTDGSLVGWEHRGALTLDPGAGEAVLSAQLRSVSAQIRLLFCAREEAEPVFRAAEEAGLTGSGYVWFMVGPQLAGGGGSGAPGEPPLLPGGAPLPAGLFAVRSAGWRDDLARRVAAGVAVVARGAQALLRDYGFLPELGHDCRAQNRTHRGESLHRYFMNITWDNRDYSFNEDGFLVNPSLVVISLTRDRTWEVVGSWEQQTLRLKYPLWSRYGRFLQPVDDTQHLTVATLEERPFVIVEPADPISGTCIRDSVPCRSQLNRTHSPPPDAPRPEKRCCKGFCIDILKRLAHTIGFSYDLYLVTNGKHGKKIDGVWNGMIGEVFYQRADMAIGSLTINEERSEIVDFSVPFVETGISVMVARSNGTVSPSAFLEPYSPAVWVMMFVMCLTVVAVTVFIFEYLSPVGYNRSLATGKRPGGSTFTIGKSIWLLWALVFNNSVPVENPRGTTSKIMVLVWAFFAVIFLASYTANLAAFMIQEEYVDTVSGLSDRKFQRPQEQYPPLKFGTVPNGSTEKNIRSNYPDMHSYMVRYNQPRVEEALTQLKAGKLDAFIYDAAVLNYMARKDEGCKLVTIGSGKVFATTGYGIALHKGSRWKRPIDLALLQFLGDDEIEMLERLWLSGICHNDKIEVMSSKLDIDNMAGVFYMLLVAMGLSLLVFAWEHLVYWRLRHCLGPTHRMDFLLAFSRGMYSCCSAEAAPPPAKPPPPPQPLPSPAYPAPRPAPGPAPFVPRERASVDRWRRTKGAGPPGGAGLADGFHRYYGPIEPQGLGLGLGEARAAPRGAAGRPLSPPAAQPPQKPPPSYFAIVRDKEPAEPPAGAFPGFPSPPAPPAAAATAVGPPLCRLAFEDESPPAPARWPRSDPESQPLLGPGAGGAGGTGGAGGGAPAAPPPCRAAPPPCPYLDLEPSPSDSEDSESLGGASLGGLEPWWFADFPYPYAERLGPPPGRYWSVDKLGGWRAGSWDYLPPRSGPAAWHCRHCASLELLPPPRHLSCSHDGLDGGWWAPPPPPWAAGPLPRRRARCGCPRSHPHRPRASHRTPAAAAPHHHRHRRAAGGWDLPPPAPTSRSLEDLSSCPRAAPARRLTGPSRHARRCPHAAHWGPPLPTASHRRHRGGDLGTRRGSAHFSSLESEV

5-HT2A = 5-HT2A (Homo sapiens (Human), UniProt P28223); test: Off-target radioligand binding displacement (NIMH PDSP); conditions: pH 7.4
Experimental: (§1) Briefly, the compound was submitted to the NIMH PDSP and screened at a single concentration (10 μM) of test article under equilibrium conditions for ability to displace specific radioligands from binding to their targets expressed in mammalian cell membranes in vitro. Each receptor target was assayed in quadruplicate and the % inhibition of radioligand binding at each target determined at pH 7.4. […]

Alpha2C = Alpha2C (Homo sapiens (Human), UniProt P18825); test: as above; conditions: pH 7.4
Sequence of Alpha2C (P18825 whole entry): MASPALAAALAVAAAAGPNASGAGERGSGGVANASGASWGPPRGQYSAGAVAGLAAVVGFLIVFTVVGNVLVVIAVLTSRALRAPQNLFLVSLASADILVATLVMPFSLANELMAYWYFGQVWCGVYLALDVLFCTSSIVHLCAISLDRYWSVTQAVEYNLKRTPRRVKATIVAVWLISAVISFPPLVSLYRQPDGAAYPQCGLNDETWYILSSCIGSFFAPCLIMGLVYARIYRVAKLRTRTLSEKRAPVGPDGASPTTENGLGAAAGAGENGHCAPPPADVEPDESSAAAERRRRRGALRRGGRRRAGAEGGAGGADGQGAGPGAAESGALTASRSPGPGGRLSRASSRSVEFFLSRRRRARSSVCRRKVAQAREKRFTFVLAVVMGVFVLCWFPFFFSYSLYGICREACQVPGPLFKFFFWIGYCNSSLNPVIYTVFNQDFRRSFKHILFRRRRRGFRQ
Experimental: as §1

[1] = Pharmacokinetics in the brain compartment compared to plasma in mice; type: in vivo; conditions: BALB/c, mouse; for Cmax at 1 h: iv
Experimental: Formulation for pharmacokinetic studies used 2% or 10% N′,N′-dimethylacetamide, 10% propylene glycol, and 30% 2-hydroxypropyl-beta-cyclodextrin in water and a dose volume of 10 mL/kg (all routes of administration).
Here, brain samples were first washed in deionized water to remove blood, the weight recorded, then transferred into fresh 1 mL water, homogenized, and stored at −80° C. until analysis. The ratio of compound in brain (g) compared to blood (mL) was then calculated.

[2] = tested on: motor coordination of mice on rotarod; test: Rotarod performance; type: in vivo, mouse; conditions: for rotarod impairment: all four trials
Experimental: The locomotor and rotarod studies were approved by the Georgia State University IACUC, an AAALAC accredited institution under the supervision of licensed veterinarians. Mice were group housed, provided nestlets and shelters with access to food pellets and water ad libitum under a 12-hour light/dark cycle.
For rotarod experiments, male C57BL/6 mice (>90 days old) were tested using a Rotamax 4/8 rotarod (Columbus Instruments, Columbus, Ohio). Prior to training and testing, the mice were brought to the testing room and allowed to acclimate for two hours prior to any further handling. Mice were placed on a rotating rod (5 rpm), 3.8 cm in diameter and 8 cm wide, elevated 30 cm from the floor of a chamber. After 10 sec of rotation at a fixed velocity, the rotation was slowly accelerated from 5 to 35 rpm over a 5 min period. The duration of time that the mouse could stay on the rotarod, without hanging on for a full rotation or without falling, was recorded. Mice were trained 4 times at 25 min inter-trial intervals on each day for two days. On day three, mice were randomly assigned to treatment groups and administered test drug or vehicle (via IP administration) 25 min prior to testing (4 trials with inter-trial interval of 25 min). Individuals performing the experiment were blinded to the identity of each treatment group. Results were analyzed by ANOVA and Dunnett's post hoc test to compare duration of time on the rotating rod of drug-treated groups to the vehicle controls.

[3] = % current remaining after 3 μM compound

## O=C1CCc2cc(OC[C@H](O)CN3CCN(c4ccc(C(F)(F)F)cc4)CC3)ccc2N1 [NP10679]
Human GluN1/GluN2B; pH 6.9, read-out: IC50 (μM) pH 6.9
  IC50: 0.023 µM
Human GluN1/GluN2B; pH 6.9, read-out: IC50 value at pH 6.9
  IC50: 0.023 µM
Human GluN1/GluN2B; pH 7.6, read-out: IC50 (μM) pH 7.6
  IC50: 0.142 µM
Human GluN1/GluN2B; pH 7.6, read-out: IC50 value at pH 7.6
  IC50: 0.142 µM
Human GluN1/GluN2B; ratio of IC50 at pH 7.6 to IC50 at pH 6.9
  pH Boost: 6.2
GluN2A; 3 μM
  off-target inhibition against GluN2A: no noticeable off-target inhibition
GluN2A; [3]
  GluN2A % residual: 99.0 (pH 6.9) %
GluN2D; 3 μM
  off-target inhibition against GluN2D: no noticeable off-target inhibition
GluN2D; [3]
  GluN2D % residual: 98.3 (pH 6.9) %
5-HT2A
  Ki: 0.638 µM
Alpha2C
  Ki: 3.09 µM
[1]; brain, intraperitoneal, 5 mg/kg, 5 mg/kg IP, 1 hour post dosing, read-out: estimated free drug concentration in the brain
  concentration at 1 h: 60 to 134 nM
[1]; brain, intraperitoneal, 5 mg/kg, 5 mg/kg IP, 2 hours post dosing, read-out: estimated free drug concentration in the brain
  concentration at 2 h: 51 to 103 nM
[1]; brain, intraperitoneal, 5 mg/kg, 5 mg/kg IP, 4 hours post dosing, read-out: estimated free drug concentration in the brain
  concentration at 4 h: 33 to 66 nM
[1]; brain, intraperitoneal, 5 mg/kg, 5 mg/kg IP, 8 hours post dosing, read-out: estimated free drug concentration in the brain
  concentration at 8 h: 28 to 56 nM
[1]; brain, intravenous, 3 mg/kg, 3 mg/kg IV, Study 1, 1 hour, read-out: Brain Conc.
  concentration at 1 h: 1740 ng/g
[1]; brain, intravenous, 3 mg/kg, 3 mg/kg IV, Study 2A (2% DMA formulation), 1 hour, read-out: Brain Conc.
  concentration at 1 h: 1420 ng/g
[1]; brain, intravenous, 3 mg/kg, 3 mg/kg IV, Study 2B, 1 hour, read-out: Brain Conc.
  concentration at 1 h: 2100 ng/g
[1]; plasma, 3 mg/kg, 3 mg/kg IV, Study 1, 1 hour
  Cmax at 1 h: 2300 ng/mL
[1]; plasma, 3 mg/kg, 3 mg/kg IV, Study 2A (2% DMA formulation), 1 hour
  Cmax at 1 h: 600 ng/mL
[1]; plasma, 3 mg/kg, 3 mg/kg IV, Study 2B, 1 hour
  Cmax at 1 h: 817 ng/mL
[1]; plasma, 3 mg/kg IV, Study 1
  Tmax: 1 h
[2]; 2 mg/kg IP
  rotarod impairment: no significant impairment
[2]; 5 mg/kg IP
  rotarod impairment: no significant impairment
[2]; 10 mg/kg IP, fourth trial
  latency to fall: 87 ± 13 s
[2]; 10 mg/kg IP, trials 1, 2, or 3
  latency to fall, change from the vehicle control: no statistically significant change
